Assay results from article PMC9030254, “Target Hopping from Protein Kinases to PXR: Identification of Small-Molecule Protein Kinase Inhibitors as Selective Modulators of Pregnane X Receptor from TüKIC Library” (Cells, 2022).

How the values were obtained:
Assay in all cases: Kinase profiling
Format in all cases: biochemical
ACVR2B = molecular target: T1, ACVR2B (Homo sapiens, UniProt Q13705)
T1 construct: purchased ProQinase (Freiburg, Germany)
Description: (§1) The analysis was performed by ProQinase (Freiburg, Germany).

ACVRL1 = molecular target: T2, ACVRL1 (Homo sapiens, UniProt P37023)
T2 construct: purchased ProQinase (Freiburg, Germany)
T2 sequence (P37023 22-503): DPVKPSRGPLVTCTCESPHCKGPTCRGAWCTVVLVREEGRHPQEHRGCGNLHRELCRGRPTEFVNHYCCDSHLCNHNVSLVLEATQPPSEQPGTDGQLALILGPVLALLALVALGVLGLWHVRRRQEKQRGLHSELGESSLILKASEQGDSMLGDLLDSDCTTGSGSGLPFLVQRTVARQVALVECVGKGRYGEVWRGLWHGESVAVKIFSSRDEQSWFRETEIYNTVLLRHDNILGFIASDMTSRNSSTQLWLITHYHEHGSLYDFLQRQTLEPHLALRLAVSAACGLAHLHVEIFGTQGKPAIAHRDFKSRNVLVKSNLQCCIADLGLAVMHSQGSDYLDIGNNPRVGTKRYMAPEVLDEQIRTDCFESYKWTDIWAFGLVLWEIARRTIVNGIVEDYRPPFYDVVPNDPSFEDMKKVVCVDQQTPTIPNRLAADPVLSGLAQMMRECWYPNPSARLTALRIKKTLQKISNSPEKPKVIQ
Description: as §1

ASK1 = molecular target: T3, ASK1 (Homo sapiens, UniProt Q99683)
T3 construct: purchased ProQinase (Freiburg, Germany)
T3 sequence (Q99683 1-1374): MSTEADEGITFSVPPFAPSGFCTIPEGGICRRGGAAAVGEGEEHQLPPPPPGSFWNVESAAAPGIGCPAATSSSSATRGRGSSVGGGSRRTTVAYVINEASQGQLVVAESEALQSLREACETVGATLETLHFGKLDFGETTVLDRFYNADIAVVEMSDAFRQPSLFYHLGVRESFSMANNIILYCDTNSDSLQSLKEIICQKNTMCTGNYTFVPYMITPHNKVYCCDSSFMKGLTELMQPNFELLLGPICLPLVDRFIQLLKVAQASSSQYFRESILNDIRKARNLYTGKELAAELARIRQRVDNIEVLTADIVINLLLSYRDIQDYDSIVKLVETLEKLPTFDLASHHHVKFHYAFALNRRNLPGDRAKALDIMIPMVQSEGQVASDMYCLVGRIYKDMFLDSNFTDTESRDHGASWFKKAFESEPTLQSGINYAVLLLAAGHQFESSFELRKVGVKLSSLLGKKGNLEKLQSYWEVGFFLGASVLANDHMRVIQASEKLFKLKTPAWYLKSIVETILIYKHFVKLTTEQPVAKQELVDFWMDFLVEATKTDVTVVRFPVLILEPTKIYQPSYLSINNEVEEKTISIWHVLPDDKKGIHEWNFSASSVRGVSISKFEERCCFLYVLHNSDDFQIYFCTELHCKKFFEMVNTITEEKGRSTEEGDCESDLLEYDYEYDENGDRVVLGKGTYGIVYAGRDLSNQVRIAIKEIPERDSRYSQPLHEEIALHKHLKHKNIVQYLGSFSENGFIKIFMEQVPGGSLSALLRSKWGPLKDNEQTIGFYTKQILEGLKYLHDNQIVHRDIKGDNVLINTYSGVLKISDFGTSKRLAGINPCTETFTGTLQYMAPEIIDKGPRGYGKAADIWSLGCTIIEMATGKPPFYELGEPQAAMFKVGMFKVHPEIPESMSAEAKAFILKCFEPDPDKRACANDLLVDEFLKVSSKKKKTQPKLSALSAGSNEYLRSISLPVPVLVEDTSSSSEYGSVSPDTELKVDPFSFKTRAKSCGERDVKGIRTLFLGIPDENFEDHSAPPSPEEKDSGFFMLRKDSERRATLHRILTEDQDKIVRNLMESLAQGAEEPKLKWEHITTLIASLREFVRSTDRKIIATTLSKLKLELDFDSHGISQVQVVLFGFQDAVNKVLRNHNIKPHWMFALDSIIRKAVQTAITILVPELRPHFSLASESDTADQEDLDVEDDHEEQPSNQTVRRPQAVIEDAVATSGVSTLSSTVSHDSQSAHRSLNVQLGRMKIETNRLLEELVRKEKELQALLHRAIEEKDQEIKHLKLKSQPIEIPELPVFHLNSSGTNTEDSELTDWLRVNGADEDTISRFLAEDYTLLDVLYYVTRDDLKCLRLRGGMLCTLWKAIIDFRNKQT
Description: as §1

SRPK1 = molecular target: T4, SRPK1 (Homo sapiens, UniProt Q96SB4)
T4 construct: purchased ProQinase (Freiburg, Germany)
T4 sequence (Q96SB4 whole entry): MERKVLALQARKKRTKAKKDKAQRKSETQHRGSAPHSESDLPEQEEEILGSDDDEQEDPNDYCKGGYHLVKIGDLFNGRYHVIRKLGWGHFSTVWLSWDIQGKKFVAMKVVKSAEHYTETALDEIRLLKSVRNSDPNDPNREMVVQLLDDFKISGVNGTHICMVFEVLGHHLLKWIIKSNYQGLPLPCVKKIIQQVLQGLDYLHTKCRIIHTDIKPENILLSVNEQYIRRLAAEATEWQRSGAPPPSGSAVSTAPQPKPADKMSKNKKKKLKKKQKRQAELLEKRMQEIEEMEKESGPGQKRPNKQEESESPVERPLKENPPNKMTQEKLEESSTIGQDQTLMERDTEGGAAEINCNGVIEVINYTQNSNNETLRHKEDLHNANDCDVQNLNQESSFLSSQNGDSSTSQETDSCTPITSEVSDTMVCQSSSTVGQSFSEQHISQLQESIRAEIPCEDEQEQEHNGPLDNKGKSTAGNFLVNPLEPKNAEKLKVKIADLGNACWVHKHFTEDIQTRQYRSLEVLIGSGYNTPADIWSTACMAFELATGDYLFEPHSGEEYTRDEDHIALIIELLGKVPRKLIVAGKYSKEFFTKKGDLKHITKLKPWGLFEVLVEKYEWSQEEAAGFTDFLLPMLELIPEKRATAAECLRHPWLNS
Description: as §1

TSK2 = molecular target: T5, TSK2 (Homo sapiens, UniProt Q96PF2)
T5 construct: purchased ProQinase (Freiburg, Germany)
T5 sequence (Q96PF2 1-358): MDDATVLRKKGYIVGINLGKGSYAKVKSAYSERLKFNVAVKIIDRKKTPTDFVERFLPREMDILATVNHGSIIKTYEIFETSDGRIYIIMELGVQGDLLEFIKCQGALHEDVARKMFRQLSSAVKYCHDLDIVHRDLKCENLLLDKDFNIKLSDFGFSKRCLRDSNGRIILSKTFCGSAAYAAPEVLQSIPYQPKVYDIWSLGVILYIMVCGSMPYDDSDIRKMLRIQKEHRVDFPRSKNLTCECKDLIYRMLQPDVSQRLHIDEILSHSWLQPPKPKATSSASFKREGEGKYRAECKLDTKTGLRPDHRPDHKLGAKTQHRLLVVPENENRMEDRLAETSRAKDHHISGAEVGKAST
Description: as §1

CDK5/p35NCK = molecular target: T6, CDK5/p35NCK (Homo sapiens, UniProt Q00535)
T6 construct: purchased ProQinase (Freiburg, Germany)
T6 sequence (Q00535 whole entry): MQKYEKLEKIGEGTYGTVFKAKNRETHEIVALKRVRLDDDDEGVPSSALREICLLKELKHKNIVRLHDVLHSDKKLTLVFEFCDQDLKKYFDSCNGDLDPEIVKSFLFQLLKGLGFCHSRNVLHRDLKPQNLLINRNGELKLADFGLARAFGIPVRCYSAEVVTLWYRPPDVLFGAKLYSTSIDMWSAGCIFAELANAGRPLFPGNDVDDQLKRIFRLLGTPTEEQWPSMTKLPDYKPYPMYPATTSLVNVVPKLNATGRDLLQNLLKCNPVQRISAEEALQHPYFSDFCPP
T6 sequence (Q15078 whole entry partner): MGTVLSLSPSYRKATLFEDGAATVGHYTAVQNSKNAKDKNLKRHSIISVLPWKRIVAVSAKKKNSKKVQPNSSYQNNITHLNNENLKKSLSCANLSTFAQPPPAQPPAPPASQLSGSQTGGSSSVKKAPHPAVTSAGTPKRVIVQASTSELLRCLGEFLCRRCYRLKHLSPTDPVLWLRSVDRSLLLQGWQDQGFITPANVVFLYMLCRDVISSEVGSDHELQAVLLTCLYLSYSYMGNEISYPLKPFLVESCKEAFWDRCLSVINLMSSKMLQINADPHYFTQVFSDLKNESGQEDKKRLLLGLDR
Description: as §1

ERK5 = molecular target: T7, ERK5 (Homo sapiens, UniProt Q13164)
T7 construct: purchased ProQinase (Freiburg, Germany)
T7 sequence (Q13164 whole entry): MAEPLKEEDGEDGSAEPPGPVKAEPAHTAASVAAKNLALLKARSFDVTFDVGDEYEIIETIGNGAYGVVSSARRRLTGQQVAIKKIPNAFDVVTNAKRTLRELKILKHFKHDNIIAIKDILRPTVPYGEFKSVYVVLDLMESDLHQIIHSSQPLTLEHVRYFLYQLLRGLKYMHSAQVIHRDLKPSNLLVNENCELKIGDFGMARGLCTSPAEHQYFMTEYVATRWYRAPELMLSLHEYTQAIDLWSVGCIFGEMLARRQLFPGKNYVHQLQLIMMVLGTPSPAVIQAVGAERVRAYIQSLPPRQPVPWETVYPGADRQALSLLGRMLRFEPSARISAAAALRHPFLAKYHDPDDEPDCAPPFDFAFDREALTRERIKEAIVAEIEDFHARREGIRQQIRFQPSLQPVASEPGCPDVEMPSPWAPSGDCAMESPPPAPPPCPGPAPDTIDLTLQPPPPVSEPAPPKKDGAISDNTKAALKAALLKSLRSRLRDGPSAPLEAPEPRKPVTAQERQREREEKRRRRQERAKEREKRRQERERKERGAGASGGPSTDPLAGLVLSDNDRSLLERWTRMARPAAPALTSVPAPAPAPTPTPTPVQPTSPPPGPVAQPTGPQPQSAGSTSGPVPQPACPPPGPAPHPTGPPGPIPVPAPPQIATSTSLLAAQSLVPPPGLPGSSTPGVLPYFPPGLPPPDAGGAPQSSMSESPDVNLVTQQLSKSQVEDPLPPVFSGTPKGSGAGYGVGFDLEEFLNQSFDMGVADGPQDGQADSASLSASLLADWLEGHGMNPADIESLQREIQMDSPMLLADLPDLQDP
Description: as §1

STK23 = molecular target: T8, STK23 (Homo sapiens, UniProt Q9UPE1)
T8 construct: purchased ProQinase (Freiburg, Germany)
T8 sequence (Q9UPE1 whole entry): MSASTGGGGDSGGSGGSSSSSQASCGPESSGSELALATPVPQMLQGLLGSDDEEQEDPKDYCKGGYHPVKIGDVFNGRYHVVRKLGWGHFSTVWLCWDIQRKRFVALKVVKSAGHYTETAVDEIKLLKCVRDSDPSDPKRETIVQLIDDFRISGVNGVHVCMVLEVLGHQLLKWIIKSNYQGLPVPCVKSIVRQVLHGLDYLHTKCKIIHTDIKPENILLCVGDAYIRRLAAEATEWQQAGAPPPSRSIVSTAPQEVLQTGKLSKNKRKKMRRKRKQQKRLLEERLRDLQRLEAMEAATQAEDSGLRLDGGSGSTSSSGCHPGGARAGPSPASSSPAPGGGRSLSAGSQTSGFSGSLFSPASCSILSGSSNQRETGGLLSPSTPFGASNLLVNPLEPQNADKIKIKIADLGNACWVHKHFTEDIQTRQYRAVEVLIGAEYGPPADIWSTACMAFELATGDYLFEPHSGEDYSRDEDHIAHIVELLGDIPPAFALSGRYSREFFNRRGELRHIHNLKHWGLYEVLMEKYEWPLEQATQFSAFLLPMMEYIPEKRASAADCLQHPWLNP
Description: as §1

MARK1 = molecular target: T9, MARK1 (Homo sapiens, UniProt Q9P0L2)
T9 construct: purchased ProQinase (Freiburg, Germany)
T9 sequence (Q9P0L2 whole entry): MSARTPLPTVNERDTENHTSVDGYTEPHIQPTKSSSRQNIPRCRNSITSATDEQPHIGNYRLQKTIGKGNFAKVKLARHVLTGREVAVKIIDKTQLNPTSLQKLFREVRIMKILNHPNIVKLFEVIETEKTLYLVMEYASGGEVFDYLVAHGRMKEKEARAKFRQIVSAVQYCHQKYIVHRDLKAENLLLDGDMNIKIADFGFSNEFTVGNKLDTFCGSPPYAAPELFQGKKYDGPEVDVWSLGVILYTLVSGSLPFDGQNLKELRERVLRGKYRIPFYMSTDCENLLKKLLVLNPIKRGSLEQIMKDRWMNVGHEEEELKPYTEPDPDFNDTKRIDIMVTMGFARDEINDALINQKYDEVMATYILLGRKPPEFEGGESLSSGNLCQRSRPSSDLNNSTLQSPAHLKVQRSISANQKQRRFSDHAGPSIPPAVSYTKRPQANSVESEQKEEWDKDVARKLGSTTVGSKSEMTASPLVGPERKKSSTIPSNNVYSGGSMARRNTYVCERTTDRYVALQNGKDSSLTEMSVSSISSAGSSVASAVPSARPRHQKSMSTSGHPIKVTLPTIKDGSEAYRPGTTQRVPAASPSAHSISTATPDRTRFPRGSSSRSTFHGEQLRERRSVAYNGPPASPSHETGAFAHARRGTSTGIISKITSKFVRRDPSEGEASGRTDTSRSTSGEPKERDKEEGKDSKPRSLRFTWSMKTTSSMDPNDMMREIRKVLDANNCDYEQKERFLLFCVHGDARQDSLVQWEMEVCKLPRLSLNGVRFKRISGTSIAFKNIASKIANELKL
Description: as §1

PRK2 = molecular target: T10, PRK2 (Homo sapiens, UniProt Q16513)
T10 construct: purchased ProQinase (Freiburg, Germany)
Description: as §1

NEK6 = molecular target: T11, NEK6 (Homo sapiens, UniProt Q9HC98)
T11 construct: purchased ProQinase (Freiburg, Germany)
T11 sequence (Q9HC98 whole entry): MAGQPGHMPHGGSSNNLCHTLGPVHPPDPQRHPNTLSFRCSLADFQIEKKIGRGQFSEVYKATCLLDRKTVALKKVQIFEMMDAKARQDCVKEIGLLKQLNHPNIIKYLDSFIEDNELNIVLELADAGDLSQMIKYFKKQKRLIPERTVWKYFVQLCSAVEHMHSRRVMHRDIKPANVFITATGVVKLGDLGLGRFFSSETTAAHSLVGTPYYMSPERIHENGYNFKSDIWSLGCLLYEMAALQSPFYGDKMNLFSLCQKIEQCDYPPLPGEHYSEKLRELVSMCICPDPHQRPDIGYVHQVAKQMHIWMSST
Description: as §1

T1 sequence (Q13705 19-512): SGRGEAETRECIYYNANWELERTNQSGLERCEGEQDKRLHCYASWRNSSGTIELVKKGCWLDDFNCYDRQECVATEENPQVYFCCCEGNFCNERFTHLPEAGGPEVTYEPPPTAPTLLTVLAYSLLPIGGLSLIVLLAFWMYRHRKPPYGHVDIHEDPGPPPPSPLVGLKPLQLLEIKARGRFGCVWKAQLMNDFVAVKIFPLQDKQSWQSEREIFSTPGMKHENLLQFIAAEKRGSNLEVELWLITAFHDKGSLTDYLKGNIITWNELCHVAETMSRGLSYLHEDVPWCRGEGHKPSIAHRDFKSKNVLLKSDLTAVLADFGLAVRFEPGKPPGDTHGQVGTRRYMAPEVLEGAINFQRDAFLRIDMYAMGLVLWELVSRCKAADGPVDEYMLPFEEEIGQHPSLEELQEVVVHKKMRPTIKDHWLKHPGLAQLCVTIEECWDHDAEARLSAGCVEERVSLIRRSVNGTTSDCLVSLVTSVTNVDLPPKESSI

Compound	Residual activity (ACVR2B; 1.0E-05 M)	Residual activity (ACVR2B; 1.0E-06 M)	Residual activity (ACVRL1; 1.0E-05 M)	Residual activity (ACVRL1; 1.0E-06 M)	Residual activity (ASK1; 1.0E-05 M)	Residual activity (ASK1; 1.0E-06 M)	Residual activity (SRPK1; 1.0E-05 M)	Residual activity (SRPK1; 1.0E-06 M)	Residual activity (TSK2; 1.0E-05 M)	Residual activity (TSK2; 1.0E-06 M)	Residual activity (CDK5/p35NCK; 1.0E-05 M)	Residual activity (CDK5/p35NCK; 1.0E-06 M)	Residual activity (ERK5; 1.0E-05 M)	Residual activity (ERK5; 1.0E-06 M)	Residual activity (STK23; 1.0E-05 M)	Residual activity (STK23; 1.0E-06 M)	Residual activity (MARK1; 1.0E-05 M)	Residual activity (MARK1; 1.0E-06 M)	Residual activity (PRK2; 1.0E-05 M)	Residual activity (PRK2; 1.0E-06 M)	further results
O=C(Cc1ccccc1)Nc1ccc(F)c(Nc2ccc3c(c2)CCCCC3=O)c1 [Compound 100]	169 % of control	95 % of control	100 % of control	106 % of control	85 % of control	87 % of control	71 % of control	94 % of control	93 % of control	97 % of control	93 % of control	105 % of control	103 % of control	80 % of control	79 % of control	89 % of control	90 % of control	91 % of control	97 % of control	94 % of control	Residual activity (NEK6; 1.0E-05 M): 87 % of control; Residual activity (NEK6; 1.0E-06 M): 95 % of control
O=C(Nc1ccc(F)c(Nc2ccc3c(c2)CCCCC3=O)c1)c1cccc(F)c1 [Compound 109]	167 % of control	104 % of control	109 % of control	94 % of control	88 % of control	87 % of control	68 % of control	96 % of control	99 % of control	88 % of control	101 % of control	95 % of control	93 % of control	90 % of control	76 % of control	78 % of control	99 % of control	87 % of control	96 % of control	90 % of control	Residual activity (NEK6; 1.0E-05 M): 92 % of control; Residual activity (NEK6; 1.0E-06 M): 96 % of control
